Assay results as given in patent publication US20220110916A1, “Antioxidant and Use Thereof” (Bioradical Research Institute Corp., priority 2019, published 2022).

Key:
[1] = tested on: rat neuroid cells B50; test: Toxicity evaluation, cell viability by Alamar Blue after 24 hours; type: cell-based; conditions: 12.5, 25, 50, 100, or 200 μmol/l, FIG. 5
Description: Rat neuroid cells B50 were seeded in 12-well plates and then cultured. Edaravone (RC), ED2AP, or BisEp-C3 was added to each well so as to achieve a predetermined concentration (12.5, 25, 50, 100, or 200 μmol/l), and then incubated for 24 hours at 37° C. and 5% CO2. Cell viability in each well after the culture was measured using Alamar Blue.

[2] = tested on: rat neuroid cells B50; test: Alleviation of singlet oxygen (Rose Bengal + G-LED) cytotoxicity, Alamar Blue fluorescence; type: cell-based; conditions: for recovery of the fluorescence intensity (cellular activity): 0, 12.5, 25, 50, or 100 μmol/l, 200 nmol/l RB + G-LED 5 minutes, FIG. 3; for cytoprotective function compared with edaravone: B50 cells, RB + G-LED singlet oxygen
Description: Edaravone, ED2AP and BisEp-C3 were examined whether they had the function of alleviating neuronopathy. Specifically, singlet oxygen was generated by combining Rose Bengal (RB), which is a sensitizer, with green light (G-LED), and the function of alleviating the cytotoxicity of the generated singlet oxygen was examined with the cellular activity being an indicator.
First, rat neuroid cells B50 were cultured in 12-well dishes at 2×10^5 cells/well (medium: RPMI-1640 medium containing 5% FCS) overnight. After the culturing, the medium of each well was replaced with HBSS (1000 μl/well; phenol red free Ca+, Mg+) containing 200 nmol/l RB and edaravone, ED2AP, or BisEp-C3 having a predetermined concentration (0, 12.5, 25, 50, or 100 μmol/l). The dish was then irradiated with G-LED for 5 minutes to generate singlet oxygen. Thereafter, the medium of each well was replaced with 1000 μl of HBSS and Alamar Blue was added. The dish was then allowed to react for about 2 hours in an incubator at 37° C. and 5% CO2. After the reaction, fluorescence intensity (excitation wavelength: λ-560 nm, fluorescence wavelength: λ-595 nm) was measured with a plate reader (infinite200, Tecan Trading AG). In this experimental system, the higher the cellular activity, the more Alamar Blue is taken up and the higher the fluorescence intensity. As a control, fluorescence intensity was measured in the same manner except that sodium azide (Azide, NaN3) was added instead of the compounds so as to achieve a concentration of 4 mmol/l. As a negative control (NC), fluorescence intensity was measured in the same manner except that RB was not added. The relative value of the fluorescence intensity in the sample to which each compound was added was calculated with the fluorescence intensity of the negative control being 100.

[3] = tested on: rat neuroid cells B50; test: Toxicity evaluation on byproducts after reaction with singlet oxygen, cell viability; type: cell-based; conditions: 50, 100, or 200 μmol/l reacted with RB + G-LED 525 nm in cell-free system; FIG. 6
Description: In a cell-free system, the RB was added to media (50% FCS-containing RPMI-1640 media) containing edaravone, ED2AP, and BisEp-C3 having a predetermined concentration (50, 100, or 200 μmol/l) and then irradiated with LED (G-LED) at 525 nm to generate singlet oxygen, whereby reacting each compound with singlet oxygen. The cell viability was measured in the same manner as in Example 7(1), except that the culture solution after the reaction was used as a medium of the neuroid cell B50. As a negative control (NC), the cell viability was measured in the same manner except that each compound and […] were not added in the cell-free system. Further, as a control (RB), the cell viability was measured in the same manner except that each compound was not added and only […] was added in the cell-free system.

[4] = tested on: neutrophils isolated from the peripheral blood of healthy individuals; test: Superoxide production amount of PMA-stimulated neutrophils, CLA chemiluminescence; type: cell-based, human; conditions: for relative value of the superoxide production amount: 0-200 μmol/l or 0-5000 μmol/l, PMA 100 ng/ml, control being 100, FIG. 2; for reactive oxygen species-eliminating ability compared with edaravone: PMA-stimulated neutrophils, FIG. 2(A)
Description: For examining the reactive oxygen-eliminating effect of the antioxidant of the present invention, the superoxide produced by the neutrophils when the neutrophils isolated from the peripheral blood of healthy individuals were stimulated with PMA (phorbor-12-myristate-13-acetate) was used. The superoxide production amount was measured by chemiluminescence using CLA (2-methyl-6-pjenyl-3, 7-dihydroimidazo[1,2-a]pyrazine-3-one).
First, ED2AP, BisEp-C3, edaravone, BisEp-C1, or BisEp-C1 (H2) was added to a neutrophil of 4×10^5 cells per sample so as to achieve a predetermined concentration (0, 12.5, 25, 50, 100, or 200 μmol/l, or 0, 125, 250, 500, 1250, 2500, or 5000 μmol/l) with 5 μmol of CLA, and then the cell suspension was seeded in flat-bottomed 96-well plates. The volume of the suspension was 200 μl/well, and phenol red free Ca+, Mg+ HBSS was used as the solution. In addition, the neutrophil was stimulated by adding PMA so as to achieve a concentration of 100 ng/ml. After the stimulation, a plate reader (Envision 2104 Multilabel Reader, produced by Perkin Elmer Co., Ltd.) was used to measure the chemiluminescence value over time for 30 minutes with the PMA stimulation time being a reference. The measurement interval was 30 seconds. The sum of the chemiluminescence values obtained every 30 seconds for 30 minutes was taken as the superoxide production amount. In addition, as a control, the superoxide production amount was measured in the same manner except that each compound was not added. The relative value of the superoxide production amount when each compound was added was calculated with the superoxide production amount of the control being 100.

SMILES | cytotoxicity (cell viability) [1] | recovery of the fluorescence intensity (cellular activity) [2] | cytoprotective function compared with edaravone [2] | cytotoxicity of the byproducts after reaction with singlet oxygen (cell viability) [3] | relative value of the superoxide production amount [4] | reactive oxygen species-eliminating ability compared with edaravone [4]
CCN1N=C(C)/C(=C\C=C\c2c(C)nn(CC)c2O)C1=O (racemic) [BisEp-C3, 2,4-dihydro-4-[3-(1-ethyl-5-hydroxy-3-methyl-1H-pyrazol-4-yl)-2-propen-1-ylidene]-2-ethyl-5-methyl-3H-pyrazol-3-one] | not cytotoxic at any concentration | recovered in a concentration-dependent manner | higher than that of edaravone | not cytotoxic at any concentration | suppressed the superoxide production amount in a concentration-dependent manner | more potent than edaravone at high concentrations
CC1=NN(c2ccccc2)C(=O)/C1=C/C=C/c1c(C)nn(-c2ccccc2)c1O (racemic) [ED2AP, 2,4-dihydro-4-[3-(5-hydroxy-3-methyl-1-phenyl-1H-pyrazol-4-yl)-2-propen-1-ylidene]-5-methyl-2-phenyl-3H-pyrazol-3-one] | not cytotoxic at any concentration | recovered in a concentration-dependent manner | higher than that of edaravone | not cytotoxic at any concentration | suppressed the superoxide production amount in a concentration-dependent manner | more potent than edaravone at high concentrations
